Columns and labels:
Rac-1 = Rac-1 (Homo sapiens (Human), UniProt P63000); assay: Rac inhibition assay (labeled GTP); type: binding; conditions: read-out: Rac-1 % Inh.
[1] = target: KRas G12D/Q61H double mutant (Homo sapiens (Human), UniProt P01116, G12D/Q61H); assay: Ras GTP binding domain inhibition assay (labeled GTP); conditions: at 20 μM; read-out: KRas G12D Q61H % Inh.
Procedure, shortened: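 Fluorescence read-out of Cy3-/Cy5-GTP remaining bound to nickel-immobilized His-KRas after washes. Protein was coated overnight at 4° C, then exposed to compound for 3 h at room temperature before a 45 min labeled-GTP incubation.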

Rho-A = Rho-A (Homo sapiens (Human), UniProt P61586); assay: Rho inhibition assay (labeled GTP); type: binding; conditions: read-out: Rho-A % Inh.
Sequence of Rho-A (P61586 whole entry): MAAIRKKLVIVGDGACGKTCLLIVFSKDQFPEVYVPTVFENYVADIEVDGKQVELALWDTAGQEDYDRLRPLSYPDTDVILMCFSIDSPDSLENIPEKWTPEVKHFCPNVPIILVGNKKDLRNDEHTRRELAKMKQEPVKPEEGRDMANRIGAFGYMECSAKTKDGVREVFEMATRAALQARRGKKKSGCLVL

[2] = test system: MAPK phosphorylation in PANC-1 pancreatic cancer cell line; assay: MAPK cell-based phosphorylation assay (cell-direct ELISA, EGF stimulation); conditions: Homo sapiens, * = tested at 10 μM
Procedure, shortened: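 Cell-direct ELISA measured phospho-MAPK, with fluorescence read at 595 nm from AmpliFlu Red. Before fixation, PANC-1 cells starved overnight received 6 hours of compound (30 μM single dose or serial dilutions, 0.3% DMSO, 37° C), followed by 1.5 ng/ml EGF for 15 min.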

KRas G12D mutant protein = KRas G12D mutant protein (Homo sapiens (Human), UniProt P01116, G12D); assay: Ras GTP binding domain inhibition assay (labeled GTP); conditions: at 20 μM; read-out: KRas G12D % Inh.
Sequence of KRas G12D mutant protein (P01116-2 other isoform, or with tags, fused parts or gaps G12D): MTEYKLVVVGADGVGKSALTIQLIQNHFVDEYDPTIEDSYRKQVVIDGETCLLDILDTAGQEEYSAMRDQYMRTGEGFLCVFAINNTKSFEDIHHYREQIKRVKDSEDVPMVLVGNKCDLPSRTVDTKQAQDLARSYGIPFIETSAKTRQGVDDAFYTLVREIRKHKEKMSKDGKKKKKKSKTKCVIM
Description: The following method was developed as specific assay for KRas G12D mutant protein.
Buffer-I: • 50 mM Tris, pH 7.5 • 150 mM NaCl (optional) • 1 mM MgCl2 • 1 mM DTT. • KRas G12D mutant protein was expressed as a His-tagged protein. Purified His-KRas G12D protein was diluted in buffer-I to a final concentration of 3-10 μg/ml. • 200 μl of the diluted His-KRas G12D protein was added to a nickel coated 96 well plate and incubated overnight at 4° C. • The next day, wells were washed 3× in 200 μl of Buffer-I. • Then 200 μl of Buffer-I were added to each well in the presence of 1% DMSO. • Tested compounds were added to the protein-coated wells at a concentration of 20 μM, and incubated for 3 hours at room temperature. While performing IC50 measurements a serial dilution of all tested concentrations was prepared.
Then 22 μl of Cy3-GTP or Cy5-GTP was added to each well. The labeled GTP was incubated for 45 min. at room temperature. • Following GTP incubation, wells were washed 3× in Buffer-I, and 200 μl of Buffer-I were added to each well. • Following washes, the amount of bound labeled-GTP was measured with an Eppendorf AF2200 plate reader.

Sequence of KRas G12D/Q61H double mutant (P01116-2 other isoform, or with tags, fused parts or gaps G12D/Q61H): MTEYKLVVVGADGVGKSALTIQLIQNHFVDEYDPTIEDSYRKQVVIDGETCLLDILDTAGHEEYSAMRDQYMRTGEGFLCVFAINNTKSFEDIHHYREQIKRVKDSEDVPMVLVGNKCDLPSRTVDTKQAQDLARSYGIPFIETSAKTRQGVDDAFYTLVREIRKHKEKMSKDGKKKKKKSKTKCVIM

Row | SMILES | inhibition at 20 µM (Rac-1) [%] | inhibition at 20 µM [1] [%] | inhibition at 20 µM (Rho-A) [%] | inhibition at 10 µM [2] [%] | inhibition at 20 µM (KRas G12D mutant protein) [%]
1 | COc1ccnc(-c2nc(O)c3c(CN)csc3n2)c1 | 51 to 75 | 0 | 25 to 50 |  | 
2 | Cn1cnc(-c2nc(O)c3scc(-c4cccc(OC(F)(F)F)c4)c3n2)c1 [drawing 1366] |  |  |  | 1 to 25 | 
3 | Oc1nc(-c2ccncn2)nc2c(-c3cccc(C(F)(F)F)c3)csc12 [drawing 1367] |  |  |  | 1 to 25 | 
4 | Oc1nc(-c2ncccn2)nc2c(-c3cccc(C(F)(F)F)c3)csc12 [drawing 1368] |  |  |  | 1 to 25 | 
5 | CC(C)Oc1ccc(-c2csc3c(O)nc(-c4nccn4C)nc23)cc1F [drawing 1369] |  |  |  | 25 to 50 | 
6 | Cc1sc2c(O)nc(-c3nccn3C)nc2c1-c1ccc(OC(C)C)c(F)c1 [drawing 1370] |  |  |  | 25 to 50 | 
7 | CC(C)Oc1ccc(-c2c(-c3ccccc3)sc3c(O)nc(-c4nccn4C)nc23)cc1F [drawing 1371] |  |  |  | 25 to 50 | 
8 | CC(C)COc1ccc(-c2csc3c(O)nc(-c4nccn4C)nc23)cn1 [drawing 1372] |  |  |  | 25 to 50 | 
9 | COc1ccc(-c2csc3c(O)nc(-c4nccn4C)nc23)cn1 [drawing 1373] |  |  |  | 51 to 75 | 
10 | Cn1ccnc1-c1nc(O)c2scc(-c3ccccc3)c2n1 [drawing 1374] |  |  |  | 76 to 100 | 
11 | Cn1ccnc1-c1nc(O)c2scc(-c3ccccc3Cl)c2n1 [drawing 1375] |  |  |  | 25 to 50 | 
12 | Cn1ccnc1-c1nc(O)c2scc(-c3ccc(F)cc3F)c2n1 [drawing 1376] |  |  |  | 0 | 
13 | Cn1ccnc1-c1nc(O)c2scc(-c3cccc(Cl)c3)c2n1 [drawing 1377] |  |  |  | 25 to 50 | 
14 | COC(C)(C)c1ccc(-c2csc3c(O)nc(-c4nccn4C)nc23)cc1 [drawing 1378] |  |  |  | 25 to 50 | 
15 | Cn1ccnc1-c1nc(O)c2scc(-c3ccc(C(C)(C)C)cc3)c2n1 [drawing 1379] |  |  |  | 25 to 50 | 
16 | COCCNc1nc(-c2ccccn2)nc2sc(-c3ccccc3)c(-c3ccccn3)c12 [drawing 1380] |  |  |  | 0 | 
17 | Cc1sc2c(O)nc(-c3nccn3C)nc2c1-c1ccc(F)cc1F [drawing 1381] |  |  |  | 0 | 
18 | COCCNc1nc(-c2nccn2C)nc2sc(-c3ccccc3)c(-c3ccccn3)c12 [drawing 1382] |  |  |  | 51 to 75 | 
19 | Oc1nc(-c2ccccn2)nc2c(-c3ccccc3)csc12 [drawing 3625] | 51 to 75 | 25 to 50 | 51 to 75 |  | 
20 | Cc1ccccc1N1CCN(C(=O)c2csc3c(O)nc(-c4ccccn4)nc23)CC1 [drawing 3628] | 76 to 100 | 25 to 50 | 76 to 100 |  | 
21 | O=C(c1csc2c(O)nc(-c3ccccn3)nc12)N1CCN(Cc2cccc(O)c2)CC1 [drawing 3629] | 76 to 100 | 76 to 100 | 76 to 100 |  | 
22 | O=C(c1csc2c(O)nc(-c3ccccn3)nc12)N1CCOC(c2cccc(F)c2)C1 (centres unmarked) [drawing 3630] | 25 to 50 | 25 to 50 | 1 to 25 |  | 
23 | O=C(c1csc2c(O)nc(-c3ccccn3)nc12)N1CCOC(c2nccs2)C1 (centres unmarked) [drawing 3631] | 76 to 100 | 25 to 50 | 76 to 100 |  | 
24 | COc1ccnc(-c2nc(O)c3c(Br)csc3n2)c1 [drawing 3632] | 25 to 50 | 25 to 50 | 25 to 50 |  | 
25 | O=C(NCCc1cccnc1)c1csc2nc(-c3ccccn3)nc(N3CCOCC3)c12 [drawing 3633] | 51 to 75 | 1 to 25 | 51 to 75 |  | 
26 | COc1ccc(CCNC(=O)c2csc3nc(-c4ccccn4)nc(N4CCOCC4)c23)cn1 [drawing 3634] | 51 to 75 | 25 to 50 | 51 to 75 |  | 

Row | SMILES | inhibition at 20 µM (Rac-1) [%] | inhibition at 20 µM [1] [%] | inhibition at 20 µM (Rho-A) [%] | inhibition at 10 µM [2] [%] | inhibition at 20 µM (KRas G12D mutant protein) [%]
27 | COc1ccc(CCN(C)C(=O)c2csc3nc(-c4ccccn4)nc(N4CCOCC4)c23)cn1 [drawing 3635] | 25 to 50 | 0 | 25 to 50 |  | 
28 | COc1cc(CCNC(=O)c2csc3nc(-c4ccccn4)nc(N4CCOCC4)c23)ccn1 [drawing 3636] | 51 to 75 | 1 to 25 | 25 to 50 |  | 
29 | COc1ncc(CCNC(=O)c2csc3nc(-c4ccccn4)nc(N4CCOCC4)c23)cn1 [drawing 3637] | 51 to 75 | 1 to 25 | 51 to 75 |  | 
30 | O=C(NCCc1cncs1)c1csc2nc(-c3ccccn3)nc(N3CCOCC3)c12 [drawing 3638] | 51 to 75 | 1 to 25 | 25 to 50 |  | 
31 | N#Cc1ccc(CCNC(=O)c2csc3nc(-c4ccccn4)nc(N4CCOCC4)c23)cc1 [drawing 3639] | 25 to 50 | 1 to 25 | 25 to 50 |  | 
32 | CC(C)(C(=O)Nc1ccnc(-c2ccccn2)n1)c1ccc(C#N)cc1 [drawing 3640] | 51 to 75 | 1 to 25 | 25 to 50 |  | 
33 | CC(C)(C(=O)Nc1nc(-c2ccccn2)nc2sccc12)c1ccc(C#N)cc1 [drawing 3641] | 76 to 100 | 0 | 51 to 75 |  | 
34 | O=C(c1csc2c(O)nc(-c3ccccn3)nc12)N1CCN(c2cccc(F)c2)CC1 [drawing 3642] | 76 to 100 | 25 to 50 | 76 to 100 |  | 
35 | O=C(c1csc2c(O)nc(-c3ccccn3)nc12)N1CCN(c2ccc(F)cc2)CC1 [drawing 3643] | 51 to 75 | 0 | 51 to 75 |  | 
36 | N#Cc1cccc(N2CCN(C(=O)c3csc4c(O)nc(-c5ccccn5)nc34)CC2)c1 [drawing 3644] | 51 to 75 | 1 to 25 | 51 to 75 |  | 
37 | O=C(c1csc2c(O)nc(-c3ccccn3)nc12)N1CCNC(c2ccc(O)cc2)C1 (centres unmarked) [drawing 3697] |  | 76 to 100 |  |  | 51 to 75
38 | CN(C)Cc1ccc(-c2csc3c(O)nc(-c4ccccn4)nc23)cc1F [drawing 3717] |  | 76 to 100 |  |  | 76 to 100
39 | COCc1ccc(-c2csc3c(O)nc(-c4ccccn4)nc23)cc1F [drawing 3718] |  | 51 to 75 | 76 to 100 |  | 51 to 75
40 | O=C(c1csc2c(O)nc(-c3ccccn3)nc12)N1CCNC(c2cn[nH]c2)C1 (centres unmarked) [drawing 3730] |  | 51 to 75 | 76 to 100 |  | 25 to 50
41 | CC(C)COc1ccc(-c2csc3c(O)nc(-c4ccccn4)nc23)cn1 [drawing 3749] |  | 51 to 75 | 51 to 75 |  | 51 to 75
42 | Oc1nc(-c2ccccn2)nc2c(-c3ccccc3C(F)F)csc12 [drawing 3755] |  | 51 to 75 |  |  | 51 to 75
43 | COc1cc(-c2csc3c(O)nc(-c4ccccn4)nc23)cnc1C(F)(F)F [drawing 3756] | 51 to 75 | 51 to 75 |  |  | 51 to 75
44 | Oc1nc(-c2ccccn2)nc2c(-c3ccc4c(c3)CCCO4)csc12 [drawing 3774] | 25 to 50 | 25 to 50 |  |  | 51 to 75
45 | Oc1nc(-c2ccccn2)nc2c(-c3cc(C(F)(F)F)ccc3F)csc12 [drawing 3783] | 25 to 50 | 1 to 25 |  |  | 
46 | Oc1nc(-c2ccccn2)nc2c(-c3cncc(C(F)(F)F)c3)csc12 [drawing 3784] |  | 1 to 25 | 25 to 50 |  | 
47 | CCC(C)c1csc2c(OC)nc(-c3ccccn3)nc12 (centres unmarked) [drawing 3790] |  | 51 to 75 | 51 to 75 |  | 25 to 50
48 | Cc1c(C(=O)N2CCN(c3ccccc3)CC2)sc2c(O)nc(-c3ccccn3)nc12 [drawing 3802] | 51 to 75 | 51 to 75 |  |  | 
49 | CN(C)CCOc1cccc(-c2csc3c(O)nc(-c4ccccn4)nc23)c1 [drawing 3811] |  | 76 to 100 |  |  | 76 to 100
50 | Cc1sc2c(O)nc(-c3ccccn3)nc2c1C(=O)N1CCN(Cc2cccc(O)c2)CC1 [drawing 3829] |  | 51 to 75 |  |  | 25 to 50
51 | Oc1nc(-c2ccccn2)nc2c(C3CC3)csc12 [drawing 3836] | 51 to 75 | 25 to 50 |  |  | 51 to 75
52 | COCCNc1nc(-c2nccn2C)nc2sc(-c3ccccc3)c(-c3ccccc3)c12 [drawing 3853] |  | 51 to 75 |  |  | 76 to 100
